Assay results taken from US4880817A, “O-functionalized derivatives of substituted isoquinolin-3-ols having cardiotonic and/or phosphodiesterase fraction III inhibiting properties and/or renal vasodilating properties” (Ortho Pharmaceutical Corporation, priority 1987, dated 1989).
pIC50: −log10 of the molar value. Where two headings read alike, the source gives them in different places. Blank lines part the entries; values can stand above or below the molecule they belong to.

What was measured:
[1] = tested on: adult mongrel dogs; assay: Renal vasodilating activity in anesthetized dogs; format: in vivo, mongrel dog; conditions: Canis lupus familiaris
Description: Goldberg et al., J. Pharmacol. Exp. Ther., 163, 188 (1968), performed an investigation of the structural requirements for dopamine-like renal vasodilation of phenethylamines and apomorphine. The following procedure is a variation of the assay described in that report.
Adult mongrel dogs were anesthetized and surgically prepared for electromagnetic measurement of renal artery blood flow. A carotid artery was cannulated for measuring arterial blood pressure and drugs were administered intravenously or intraarterially (via the renal artery). Heart rate was monitored with a cardiotachometer. Renal vascular resistance was calculated as the ratio of mean arterial blood pressure to renal artery blood flow. Dopamine was infused intravenously at 3 μg/kg/min for ten minutes (at an infusion rate of about 1 ml/min) to determine responsiveness of each dog to renal dopamine receptor stimulation. Cumulative dose-response data were obtained by infusing a compound of this invention at progressively increasing (usually three-fold) infusion rates, each dose being infused for five minutes. The maximum percent change from pre-drug control in renal artery blood flow (or in renal vascular resistance) was determined for each infusion dose.
RBF, RVR, MABP, and HR values are percent changes in renal blood flow, renal vascular resistance, mean arterial blood pressure, and heart rate, respectively, relative to control values.

[2] = target: T1, Phosphodiesterase Fraction III (Canis lupus familiaris, UniProt A0A8I3NYE0); assay: Inhibition of phosphodiesterase fraction III activity; format: biochemical, canine
T1 construct: The fraction III enzyme was isolated as an isomzyme from the crude canine heart homogenate; from tissue; host or cells: canine heart (crude homogenate, ion exchange chromatography)
T1 sequence (A0A8I3NYE0 1-1135): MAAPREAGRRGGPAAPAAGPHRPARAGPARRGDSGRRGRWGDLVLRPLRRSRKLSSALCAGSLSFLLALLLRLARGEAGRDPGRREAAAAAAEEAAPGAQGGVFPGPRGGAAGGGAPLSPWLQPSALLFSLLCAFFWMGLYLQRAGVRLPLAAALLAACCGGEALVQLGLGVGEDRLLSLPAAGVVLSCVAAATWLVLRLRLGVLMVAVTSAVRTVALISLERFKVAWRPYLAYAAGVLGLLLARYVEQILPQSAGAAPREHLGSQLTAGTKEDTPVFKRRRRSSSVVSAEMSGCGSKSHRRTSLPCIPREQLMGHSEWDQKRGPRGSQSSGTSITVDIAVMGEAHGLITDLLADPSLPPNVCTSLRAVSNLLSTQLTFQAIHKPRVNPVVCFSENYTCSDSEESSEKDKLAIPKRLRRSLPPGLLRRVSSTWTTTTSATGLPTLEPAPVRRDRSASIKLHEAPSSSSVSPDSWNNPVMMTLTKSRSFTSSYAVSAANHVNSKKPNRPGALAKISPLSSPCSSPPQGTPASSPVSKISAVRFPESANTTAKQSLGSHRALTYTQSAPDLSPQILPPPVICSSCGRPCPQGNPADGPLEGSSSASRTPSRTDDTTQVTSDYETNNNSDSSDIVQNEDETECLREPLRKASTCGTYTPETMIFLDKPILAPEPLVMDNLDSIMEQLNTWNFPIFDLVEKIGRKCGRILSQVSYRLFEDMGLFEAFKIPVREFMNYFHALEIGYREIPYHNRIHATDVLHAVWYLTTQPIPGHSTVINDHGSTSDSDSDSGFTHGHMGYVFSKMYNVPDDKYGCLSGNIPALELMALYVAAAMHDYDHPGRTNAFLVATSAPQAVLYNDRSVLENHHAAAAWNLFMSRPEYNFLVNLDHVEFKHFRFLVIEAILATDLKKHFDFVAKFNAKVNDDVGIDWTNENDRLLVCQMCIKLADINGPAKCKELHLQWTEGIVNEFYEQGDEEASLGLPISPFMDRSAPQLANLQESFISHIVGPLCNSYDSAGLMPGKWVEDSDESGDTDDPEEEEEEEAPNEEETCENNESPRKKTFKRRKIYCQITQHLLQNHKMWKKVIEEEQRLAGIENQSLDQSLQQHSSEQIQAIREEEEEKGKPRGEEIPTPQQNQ
Description: Thompson et al. described a cyclic nucleotide phosphodiesterase assay in Advances in Cyclic Nucleotide Research, Brooker et al., eds., 10, 69-92 (1979). The following procedure is based on that published assay and measures the ability of compounds to inhibit cyclic nucleotide phosphodiesterase which is an enzyme that converts either cyclic AMP or cyclic GMP to the noncyclized AMP or GMP, respectively.
Compounds were tested at various concentrations in the presence of cyclic AMP (0.10-1.0 μM containing 0.2 microCuries ^3 H-cyclic AMP), cyclic nucleotide phosphodiesterase, and 0.05M Tris-Cl buffer (pH 7.4, containing 5 mM magnesium chloride). After a specified time, the reaction was stopped by heating to 100° C. for 1 minute. After cooling, 0.10 ml of a solution containing snake venom (1 mg/ml) was added, and the reaction was allowed to proceed for 30 min. Termination of this reaction was accomplished by the addition of 1.0 ml of 33 percent DOWEX AGl×8 resin slurry (Dow Chemical Co., Midland, MI) to separate the product from the unconverted substrate. An aliquot was removed from the supernatant and analyzed by liquid scintillation spectrometry.
The fraction III enzyme was isolated as an isomzyme from the crude canine heart homogenate by ion exchange chromatography. The enzyme activity was designated fraction III since it is the third and last phosphodiesterase activity to be eluted from the chromatographic column. The fraction III enzyme has a relatively high affinity and specificity for the cyclic AMP.
Data are presented as the IC50 which is the concentration (in micromoles) of a compound that was required to inhibit 50 percent of the cyclic nucleotide phosphodiesterase activity.

[3] = tested on: adult mongrel dogs; assay: Acute in vivo cardiotonic activity in anesthetized dogs; parameters: species or system mongrel dog; conditions: Canis lupus familiaris, dose 1.87 mpk, iv, relative to controls
Description: The acute in vivo cardiotonic activity of compounds prepared according to the present invention was determined according to a modification of the procedure described by Alousi et al., Circ.
In particular, adult mongrel dogs were anesthetized with sodium pentobarbital and were artificially respired. Arterial pressure was monitored via a femoral artery, and the pulse pressure was used to trigger a cardiotachometer for heart rate. Left ventricular pressure was determined with a Millar catheter, and dP/dT (the change in ventricular pressure with time) was derived. Cardiac output was determined by measuring ascending aortic blood flow with an electromagnetic flow probe, and myocardial contractile force was measured with a Walton Brodie strain gauge sutured to the right ventricle. Lead II EKG was also recorded.
A standard dose (10 μg/kg/min) of dopamine was administered to assess myocardial responsiveness.
Compounds of the invention were administered by intravenous infusion and the effects on cardiovascular parameters were determined.

[4] = tested on: platelet aggregation; conditions: reported in U.S. Pat. No. 3,870,721; cited from earlier work
[5] = dose 6.2 mpk, relative to controls, read-out: HR: percent change in heart rate
[6] = dose 6.2 mpk, relative to controls, read-out: MABP: percent change in mean arterial blood pressure
[7] = dose 6.2 mpk, relative to controls, read-out: RBF: percent change in renal blood flow
[8] = dose 6.2 mpk, relative to controls, read-out: RVR: percent change in renal vascular resistance
[9] = cyclic AMP 0.10-1.0 μM, pH 7.4, enzyme from canine heart homogenate, read-out: IC50
[10] = read-out: CF: percent change in cardiac force
[11] = read-out: HR: percent change in heart rate
[12] = read-out: MABP: percent change in mean arterial blood pressure
[13] = read-out: dP/dT: maximum percent change in left ventricular pressure with time
[14] = read-out: HR: percent change in heart rate, dose 6.2 mpk, relative to controls
[15] = read-out: MABP: percent change in mean arterial blood pressure, dose 6.2 mpk, relative to controls
[16] = read-out: RBF: percent change in renal blood flow, dose 6.2 mpk, relative to controls
[17] = read-out: RVR: percent change in renal vascular resistance, dose 6.2 mpk, relative to controls
[18] = read-out: HR: percent change in heart rate, dose 1.2 mpk, relative to controls
[19] = read-out: MABP: percent change in mean arterial blood pressure, dose 1.2 mpk, relative to controls
[20] = read-out: RBF: percent change in renal blood flow, dose 1.2 mpk, relative to controls
[21] = read-out: RVR: percent change in renal vascular resistance, dose 1.2 mpk, relative to controls

SMILES: CCOc1cc2c(C)nc(OC(=O)c3ccc(OC)cc3)c([N+](=O)[O-])c2cc1OC [Cmpd 11]
change in vivo at 1.87 mg/kg [3, 10]: 126%
change in vivo at 1.87 mg/kg [3, 11]: 25%
change in vivo at 1.87 mg/kg [3, 12]: -17%
change in vivo at 1.87 mg/kg [3, 13]: 47%
pIC50 [2, 9]: 4.52

SMILES: COc1cc2c(C)nc(OC(=O)N(c3ccccc3)c3ccccc3)c([N+](=O)[O-])c2cc1OC [Cmpd 34]
change in vivo at 6.2 mg/kg [1, 14]: 21%
change in vivo at 6.2 mg/kg [1, 15]: -10%
change in vivo at 6.2 mg/kg [1, 16]: 37%
change in vivo at 6.2 mg/kg [1, 17]: -35%
pIC50 [2]: 4.46

SMILES: CCOc1cc2c(C)nc(OC(=O)N3CCNCC3)c([N+](=O)[O-])c2cc1OC [Cmpd 71]
pIC50 [2]: 4.66

SMILES: COc1cc2c(C)nc(OC(=O)N3CCNCC3)c([N+](=O)[O-])c2cc1OC [Cmpd 70, 6,7-Dimethoxy-1-methyl-4-nitro-3-(1-piperazinyl)carbonyloxyisoquinoline]
change in vivo at 1.2 mg/kg [1, 18]: 20%
change in vivo at 1.2 mg/kg [1, 19]: -1%
change in vivo at 1.2 mg/kg [1, 20]: 26%
change in vivo at 1.2 mg/kg [1, 21]: -19%
pIC50 [2]: 4.11

SMILES: CCOc1cc2c(C)nc(OC(=O)C(C)(C)C)c([N+](=O)[O-])c2cc1OC [Cmpd 9]
change in vivo at 6.2 mg/kg [1, 5]: 0%
change in vivo at 6.2 mg/kg [1, 6]: -26%
change in vivo at 6.2 mg/kg [1, 7]: 43%
change in vivo at 6.2 mg/kg [1, 8]: -48%
pIC50 [2, 9]: 4.00

SMILES: CCOc1cc2c(C)nc(OC(=O)N(C)C)c([N+](=O)[O-])c2cc1OC [Cmpd 10]
change in vivo at 6.2 mg/kg [1, 14]: 10%
change in vivo at 6.2 mg/kg [1, 15]: -12%
change in vivo at 6.2 mg/kg [1, 16]: 46%
change in vivo at 6.2 mg/kg [1, 17]: -39%
change in vivo at 1.87 mg/kg [3, 10]: 70%
change in vivo at 1.87 mg/kg [3, 11]: -6%
change in vivo at 1.87 mg/kg [3, 12]: 18%
change in vivo at 1.87 mg/kg [3, 13]: 91%
pIC50 [2]: 4.35

SMILES: CCOc1cc2c(C)nc(OC(=O)N(CC)CC)c(N)c2cc1OC [Cmpd 44]
pIC50 [2, 9]: 3.74

SMILES: C=CCNC(=O)Nc1c(OC(=O)N(CC)CC)nc(C)c2cc(OCC)c(OC)cc12 [Cmpd 74]
change in vivo at 1.2 mg/kg [1, 18]: -16%
change in vivo at 1.2 mg/kg [1, 19]: -2%
change in vivo at 1.2 mg/kg [1, 20]: 15%
change in vivo at 1.2 mg/kg [1, 21]: -14%
pIC50 [2]: 3.94

SMILES: CCOc1cc2c(C)nc(OC(C)=O)c([N+](=O)[O-])c2cc1OC [Cmpd 3]
change in vivo at 6.2 mg/kg [1, 5]: 2%
change in vivo at 6.2 mg/kg [1, 6]: -6%
change in vivo at 6.2 mg/kg [1, 7]: 61%
change in vivo at 6.2 mg/kg [1, 8]: -41%
pIC50 [2, 9]: 5.22

SMILES: CC(=O)NC1C(=O)NC(=O)c2ccccc21 (centres unmarked) [4-acetamido-1,2,3,4-tetrahydro 1,3-isoquinolinedione]
inhibition of platelet aggregation [4]: inhibit platelet aggregation

Second part, led by results:

pIC50 [2, 9]: 4.69
SMILES: CCOc1cc2c(C)nc(OS(=O)(=O)N(C)C)c([N+](=O)[O-])c2cc1OC [Cmpd 26]
change in vivo at 6.2 mg/kg [1, 5]: 0%
change in vivo at 6.2 mg/kg [1, 6]: 0%
change in vivo at 6.2 mg/kg [1, 7]: 7%
change in vivo at 6.2 mg/kg [1, 8]: -8%

pIC50 [2, 9]: 3.73
SMILES: COc1cc2c(C)nc(OS(=O)(=O)N(C)C)c(N)c2cc1OC [Cmpd 63]

pIC50 [2, 9]: 3.65
SMILES: COC(=O)c1c(OC(C)C)nc(C)c2cc(OC)c(OC)cc12 [Cmpd 18]

pIC50 [2, 9]: 4.85
SMILES: CCOc1cc2c([N+](=O)[O-])c(OC(C)=O)nc(C)c2cc1OC [Cmpd 21]
change in vivo at 6.2 mg/kg [1, 5]: 38%
change in vivo at 6.2 mg/kg [1, 6]: 3%
change in vivo at 6.2 mg/kg [1, 7]: 40%
change in vivo at 6.2 mg/kg [1, 8]: -25%

pIC50 [2, 9]: 4.47
SMILES: COc1cc2c(C)nc(OS(=O)(=O)N(C)C)c(N)c2cc1OC [Cmpd 43]

pIC50 [2, 9]: 4.38
SMILES: CCOc1nc(C)c2cc(OC)c(OC)cc2c1C(=O)OC [Cmpd 19, 4-Carbomethoxy-3-ethoxy-6,7-dimethoxy-1-methylisoquinoline]

pIC50 [2, 9]: 5.46
SMILES: CCCCOc1cc2c(C)nc(OC(C)=O)c([N+](=O)[O-])c2cc1OC [Cmpd 22]
change in vivo at 6.2 mg/kg [1, 5]: 25%
change in vivo at 6.2 mg/kg [1, 6]: -12%
change in vivo at 6.2 mg/kg [1, 7]: 11%
change in vivo at 6.2 mg/kg [1, 8]: -22%
change in vivo at 1.87 mg/kg [3, 10]: 43%
change in vivo at 1.87 mg/kg [3, 11]: 2%
change in vivo at 1.87 mg/kg [3, 12]: -23%
change in vivo at 1.87 mg/kg [3, 13]: 68%
